We go through 29 molecules from patent US9776997B2, “3-aryl-substituted imidazo[1,2-A]pyridines and their use” (Bayer Pharma Aktiengesellschaft, priority 2013, dated 2017).

SMILES strings stand for the structures.

This experiment has as its target T1, recombinant guanylate cyclase reporter cell line (Rattus norvegicus, UniProt P19686+P20595).
T1 construct: expressed in transfected cells; host or cells: recombinant reporter cell line
T1 sequence (P19686 1-690): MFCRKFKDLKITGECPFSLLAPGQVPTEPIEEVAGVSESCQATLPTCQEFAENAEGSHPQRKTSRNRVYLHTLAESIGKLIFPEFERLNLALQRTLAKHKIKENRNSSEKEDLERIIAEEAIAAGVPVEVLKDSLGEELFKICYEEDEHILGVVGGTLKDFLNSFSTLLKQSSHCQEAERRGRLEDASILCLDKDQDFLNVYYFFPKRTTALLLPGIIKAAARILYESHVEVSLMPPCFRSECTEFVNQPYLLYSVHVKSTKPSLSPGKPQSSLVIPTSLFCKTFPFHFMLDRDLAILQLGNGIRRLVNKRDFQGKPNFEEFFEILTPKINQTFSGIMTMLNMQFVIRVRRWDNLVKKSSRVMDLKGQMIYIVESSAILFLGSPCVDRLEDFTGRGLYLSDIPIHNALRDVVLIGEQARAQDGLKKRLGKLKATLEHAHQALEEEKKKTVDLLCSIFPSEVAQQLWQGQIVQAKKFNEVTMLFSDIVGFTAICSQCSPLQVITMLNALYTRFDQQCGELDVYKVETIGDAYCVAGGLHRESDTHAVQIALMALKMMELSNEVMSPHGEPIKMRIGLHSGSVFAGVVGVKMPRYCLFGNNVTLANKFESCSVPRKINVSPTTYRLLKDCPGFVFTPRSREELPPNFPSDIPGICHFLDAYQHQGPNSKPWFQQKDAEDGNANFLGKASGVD
T1 sequence (P20595 1-619): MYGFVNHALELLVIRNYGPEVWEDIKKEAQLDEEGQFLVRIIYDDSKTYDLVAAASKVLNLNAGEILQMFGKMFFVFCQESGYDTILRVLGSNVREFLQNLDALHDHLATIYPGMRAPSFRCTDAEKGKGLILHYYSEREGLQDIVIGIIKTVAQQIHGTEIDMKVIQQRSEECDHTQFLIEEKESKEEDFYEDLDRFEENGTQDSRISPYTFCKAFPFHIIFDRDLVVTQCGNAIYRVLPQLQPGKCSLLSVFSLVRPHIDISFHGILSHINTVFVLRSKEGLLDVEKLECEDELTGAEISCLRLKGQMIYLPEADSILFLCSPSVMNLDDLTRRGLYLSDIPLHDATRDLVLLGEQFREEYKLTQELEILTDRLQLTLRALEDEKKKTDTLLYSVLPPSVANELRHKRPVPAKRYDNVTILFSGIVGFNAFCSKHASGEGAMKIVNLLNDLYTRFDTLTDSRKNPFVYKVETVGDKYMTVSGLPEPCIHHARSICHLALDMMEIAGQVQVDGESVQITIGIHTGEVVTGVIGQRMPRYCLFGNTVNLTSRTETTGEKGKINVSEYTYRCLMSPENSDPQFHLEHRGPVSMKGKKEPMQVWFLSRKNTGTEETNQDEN
Briefly: Effect on a recombinant guanylate cyclase reporter cell line. It counts as cell-based. Conditions: MEC = minimum effective concentration; in some cases mean values for individual determinations. The protocol: B-2. Effect on a Recombinant Guanylate Cyclase Reporter Cell Line
The cellular effect of the inventive compounds is determined using a recombinant guanylate cyclase reporter cell line, as described in F. Wunder et al., Anal. Biochem. 339, 104-112 (2005).
Representative MEC values (MEC=minimum effective concentration) for the inventive compounds are shown in the table below (in some cases as mean values for individual determinations): […]
As to `Cc1cc(OCc2c(F)cccc2F)c2nc(C)c(-c3cnn(C(C)CC(=O)O)c3)n2c1` (racemic) [Example 110, rac-3-(4-{8-[(2,6-difluorobenzyl)oxy]-2,6-dimethylimidazo[1,2-a]pyridin-3-yl}-1H-pyrazol-1-yl)butanoic acid], the MEC was 1.0 µM.

With `CCN(CC)CCNC(=O)CC(C)n1cc(-c2c(C)nc3c(OCc4c(F)cccc4F)cc(C)cn23)cn1` (racemic) [Example 112, rac-N-[2-(Diethylamino)ethyl]-3-(4-{8-[(2,6-difluorobenzyl)oxy]-2,6-dimethylimidazo[1,2-a]pyridin-3-yl}-1H-pyrazol-1-yl)butanamide], the MEC was found to be 1.0 µM.

For the molecule `Cc1nc2c(OCc3c(F)cccc3F)cccn2c1-c1cnn(Cc2ccccc2)c1` [Example 1, 3-(1-Benzyl-1H-pyrazol-4-yl)-8-[(2,6-difluorobenzyl)oxy]-2-methylimidazo[1,2-a]pyridine], the MEC is 0.065 µM.

With `CC(=O)c1cccc(-c2c(C)nc3c(OCc4c(F)cccc4F)cccn23)c1` [Example 2, 1-(3-{8-[(2,6-difluorobenzyl)oxy]-2-methylimidazo[1,2-a]pyridin-3-yl}phenyl)ethanone], the MEC was 0.1 µM.

For `Cc1cc(-c2c(C)nc3c(OCc4c(F)cccc4F)cccn23)ccn1` [Example 3, 8-[(2,6-difluorobenzyl)oxy]-2-methyl-3-(2-methylpyridin-4-yl)imidazo[1,2-a]pyridine], the MEC was found to be 0.1 µM.

Consider `CC(=O)Nc1cccc(-c2c(C)nc3c(OCc4c(F)cccc4F)cccn23)c1` [Example 4, N-(3-{8-[(2,6-difluorobenzyl)oxy]-2-methylimidazo[1,2-a]pyridin-3-yl}phenyl)acetamide], for which the MEC came to 0.2 µM.

As for `CCN(C)Cc1cccc(-c2c(C)nc3c(OCc4c(F)cccc4F)cccn23)c1` [Example 5, N-(3-{8-[(2,6-difluorobenzyl)oxy]-2-methylimidazo[1,2-a]pyridin-3-yl}benzyl)-N-methylethanamine], the MEC came out at 0.2 µM.

For the molecule `CCS(=O)(=O)c1cccc(-c2c(C)nc3c(OCc4c(F)cccc4F)cccn23)c1` [Example 6, 8-[(2,6-difluorobenzyl)oxy]-3-[3-(ethylsulphonyl)phenyl]-2-methylimidazo[1,2-a]pyridine], the MEC came out at 0.1 µM.

Turning to `Cc1nc2c(OCc3c(F)cccc3F)cccn2c1-c1cccc(C(N)=O)c1` [Example 7, 3-{8-[(2,6-difluorobenzyl)oxy]-2-methylimidazo[1,2-a]pyridin-3-yl}benzamide], the MEC was 0.1 µM.

On to `Cc1nc2c(OCc3c(F)cccc3F)cccn2c1-c1cccc(O)c1` [Example 8, 3-{8-[(2,6-difluorobenzyl)oxy]-2-methylimidazo[1,2-a]pyridin-3-yl}phenol], for which the MEC worked out at 0.1 µM.

Consider `Cc1nc2c(OCc3c(F)cccc3F)cccn2c1-c1ccc(C(=O)NC2CC2)cc1` [Example 9, N-cyclopropyl-4-{8-[(2,6-difluorobenzyl)oxy]-2-methylimidazo[1,2-a]pyridin-3-yl}benzamide], for which the MEC came out at 0.3 µM.

Regarding `CCOc1ccc(-c2c(C)nc3c(OCc4c(F)cccc4F)cccn23)cc1` [Example 10, 8-[(2,6-difluorobenzyl)oxy]-3-(4-ethoxyphenyl)-2-methylimidazo[1,2-a]pyridine], the MEC was 1.0 µM.

In the case of `Cc1nc2c(OCc3c(F)cccc3F)cccn2c1-c1ccnn1C` [Example 11, 8-[(2,6-difluorobenzyl)oxy]-2-methyl-3-(1-methyl-1H-pyrazol-5-yl)imidazo[1,2-a]pyridine], the MEC came out at 3.0 µM.

As for `Cc1cc(-c2c(C)nc3c(OCc4c(F)cccc4F)cccn23)cnc1Cl` [Example 12, 3-(6-chloro-5-methylpyridin-3-yl)-8-[(2,6-difluorobenzyl)oxy]-2-methylimidazo[1,2-a]pyridine], the MEC was found to be 0.1 µM.

As for `Cc1nc2c(OCc3c(F)cccc3F)cccn2c1-c1cccc(Br)c1` [Example 13, 3-(3-bromophenyl)-8-[(2,6-difluorobenzyl)oxy]-2-methylimidazo[1,2-a]pyridine], the MEC is 0.3 µM.

As to `Cc1nc2c(OCc3c(F)cccc3F)cccn2c1-c1ccsc1` [Example 14, 8-[(2,6-difluorobenzyl)oxy]-2-methyl-3-(3-thienyl)imidazo[1,2-a]pyridine], the MEC was found to be 0.3 µM.

As to `Cc1nc2c(OCc3c(F)cccc3F)cccn2c1-c1cccc(CN2CCCC2)c1` [Example 15, 8-[(2,6-difluorobenzyl)oxy]-2-methyl-3-[3-(pyrrolidin-1-ylmethyl)phenyl]imidazo[1,2-a]pyridine], the MEC came out at 0.065 µM.

Take `Cc1nc2c(OCc3c(F)cccc3F)cccn2c1-c1ccc(F)cc1` [Example 16, 8-[(2,6-difluorobenzyl)oxy]-3-(4-fluorophenyl)-2-methylimidazo[1,2-a]pyridine]: the MEC came out at 1.0 µM.

Turning to `Cc1nc2c(OCc3c(F)cccc3F)cccn2c1-c1ccc(C#N)cc1` [Example 17, 4-{8-[(2,6-difluorobenzyl)oxy]-2-methylimidazo[1,2-a]pyridin-3-yl}benzonitrile], the MEC amounted to 1.0 µM.

As to `CCOC(=O)c1cccc(-c2c(C)nc3c(OCc4c(F)cccc4F)cccn23)c1` [Example 18, Ethyl 3-{8-[(2,6-difluorobenzyl)oxy]-2-methylimidazo[1,2-a]pyridin-3-yl}benzoate], the MEC was determined as 1.0 µM.

As for `Cc1nc2c(OCc3c(F)cccc3F)cccn2c1-c1cnc2ccccc2c1` [Example 19, 3-{8-[(2,6-difluorobenzyl)oxy]-2-methylimidazo[1,2-a]pyridin-3-yl}quinoline], the MEC was determined as 1.0 µM.

Regarding `Cc1nc2c(OCc3c(F)cccc3F)cccn2c1-c1cccc(CN2CCOCC2)c1` [Example 21, 8-[(2,6-difluorobenzyl)oxy]-2-methyl-3-[3-(morpholin-4-ylmethyl)phenyl]imidazo[1,2-a]pyridine], the MEC came out at 1.0 µM.

For `CCCOc1ccc(-c2c(C)nc3c(OCc4c(F)cccc4F)cccn23)cn1` [Example 22, 8-[(2,6-difluorobenzyl)oxy]-2-methyl-3-(6-propoxypyridin-3-yl)imidazo[1,2-a]pyridine], the MEC came out at 1.0 µM.

As to `Cc1nc2c(OCc3c(F)cccc3F)cccn2c1-c1ccc2c(c1)COC2=O` [Example 23, 5-{8-[(2,6-difluorobenzyl)oxy]-2-methylimidazo[1,2-a]pyridin-3-yl}-2-benzofuran-1(3H)-one], the MEC is 1.0 µM.

Regarding `Cc1nc2c(OCc3c(F)cccc3F)cccn2c1-c1cccc(OC(F)(F)F)c1` [Example 24, 8-[(2,6-difluorobenzyl)oxy]-2-methyl-3-[3-(trifluormethoxy)phenyl]imidazo[1,2-a]pyridine], the MEC is 1.0 µM.

With `COc1ccc(-c2c(C)nc3c(OCc4c(F)cccc4F)cccn23)cc1` [Example 25, 8-[(2,6-difluorobenzyl)oxy]-3-(4-methoxyphenyl)-2-methylimidazo[1,2-a]pyridine], the MEC worked out at 1.0 µM.

As to `Cc1nc2c(OCc3c(F)cccc3F)cccn2c1-c1ccc(CN(C)C)cc1` [Example 26, 1-(4-{8-[(2,6-difluorobenzyl)oxy]-2-methylimidazo[1,2-a]pyridin-3-yl}phenyl)-N,N-dimethylmethanamine], the MEC came out at 1.0 µM.

For the molecule `COCCN(C)Cc1cc(-c2c(C)nc3c(OCc4c(F)cccc4F)cccn23)ccc1OC` [Example 27, N-(5-{8-[(2,6-difluorobenzyl)oxy]-2-methylimidazo[1,2-a]pyridin-3-yl}-2-methoxybenzyl)-2-methoxy-N-methylethanamine], the MEC turned out to be 1.0 µM.

`CCN(C)Cc1ccc(OC)c(-c2c(C)nc3c(OCc4c(F)cccc4F)cccn23)c1` [Example 28, N-(3-{8-[(2,6-difluorobenzyl)oxy]-2-methylimidazo[1,2-a]pyridin-3-yl}-4-methoxybenzyl)-N-methylethanamine]: the MEC came to 1.0 µM.
